Among the data in patent US4698352A, “4-oxo-1,4-dihydronicotinic acid derivatives, salts thereof, and antibacterial agents containing the same” (Toyama Chemical Co., Ltd., priority 1982, dated 1987) are MIC values, retold here.

What all share (test): Antibacterial activity (MIC), agar dilution
Holding throughout (format): cell-based
For orientation: In agar dilution, organisms are placed on agar that contains the substance at set levels.

Experiment [1] has as its system Ps. aeruginosa GN3379*. The settings on record: Pseudomonas aeruginosa, 20 h; Ps. aeruginosa GN3379, penicillinase-producing; 10^6 cells per ml; read-out: MIC. The source says: (§1) The amount of bacteria inoculated was 10^4 cells per plate (10^6 cells per ml).
(§2) * Penicillinase-producing bacteria

Experiment [2] has as its system St. aureus F-137*. To be noted: Staphylococcus aureus, 20 h, St. aureus F-137, penicillinase-producing; 10^6 cells per ml; read-out: MIC.
Source text: as §1, §2

The test system of experiment [3] is Kl. pneumoniae Y-4*. The settings on record: Klebsiella pneumoniae, 20 h, Kl. pneumoniae Y-4, penicillinase-producing; 10^6 cells per ml; read-out: MIC.
Source text: as §1, §2

The subject of experiment [4] is E. coli TK-3*. To be noted: Escherichia coli, 20 h, E. coli TK-3, penicillinase-producing; 10^6 cells per ml; read-out: MIC.
Source text: as §1, §2

Experiment [5] concerns Ps. aeruginosa GN918**. To be noted: Pseudomonas aeruginosa, Ps. aeruginosa GN918, cephalospolinase-producing, 10^6 cells per ml.
Source text: as §1
(§3) ** Cephalospolinase-producing bacteria

For experiment [6], the system named is E. coli GN5482**. To be noted: Escherichia coli, 20 h; E. coli GN5482, cephalospolinase-producing; 10^6 cells per ml; read-out: MIC.
Source text: as §1, §3

Experiment [7] relates to Pro. vulgaris GN76**. To be noted: Proteus vulgaris, 20 h; Pro. vulgaris GN76, cephalospolinase-producing; 10^6 cells per ml; read-out: MIC.
Source text: as §1, §3

In experiment [8] the test system is Ent. cloacae IID977. The settings on record: Enterobacter cloacae, IID977, 20 h, Ent. cloacae IID977; 10^6 cells per ml; 37° C., 20 hours; read-out: MIC.
Source text: as §1

For experiment [9], the system named is Pro. mirabilis T-111. The settings on record: Proteus mirabilis, 37° C.
Source text: as §1

In experiment [10] the test system is St. aureus FDA209P. To be noted: Staphylococcus aureus, FDA209P, 20 h, St. aureus FDA209P; 10^6 cells per ml; 37° C., 20 hours; read-out: MIC.
Source text: as §1

Experiment [11] concerns E. coli TK-111. To be noted: Escherichia coli, TK111, 20 h, E. coli TK-111; 10^6 cells per ml; 37° C., 20 hours; read-out: MIC.
Source text: as §1

For experiment [12], the system named is Pro. morganii T-216. To be noted: Morganella morganii, 37° C.
Source text: as §1

The subject of experiment [13] is Pro. vulgaris GN3027. To be noted: Proteus vulgaris, GN3027, 20 h.
Source text: as §1

Experiment [14] relates to Aci. antitratus A-6. The settings on record: 20 h, Aci. antitratus A-6; 10^6 cells per ml; 37° C., 20 hours; read-out: MIC.
Source text: as §1

Experiment [15] deals with Ps. aeruginosa S-68. To be noted: Pseudomonas aeruginosa, S68; Ps. aeruginosa S-68; 10^6 cells per ml; 37° C., 20 hours; read-out: MIC.
Source text: as §1

Experiment [16] has as its system E. coli NIHJ JC-2. To be noted: Escherichia coli, NIHJJC2, 20 h.
Source text: as §1

The subject of experiment [17] is Kl. pneumoniae Y-50. The settings on record: Klebsiella pneumoniae, Y50, 20 h, 10^6 cells per ml, 37° C., read-out: MIC.
Source text: as §1

The test system of experiment [18] is Ps. aeruginosa IFO3445. To be noted: Pseudomonas aeruginosa; Ps. aeruginosa IFO3445; 10^6 cells per ml; 37° C., 20 hours; read-out: MIC.
Source text: as §1

In experiment [19] the test system is Kl. pneumoniae Y-41. The settings on record: Klebsiella pneumoniae, Y41, 10^6 cells per ml, 37° C., 20 hours, read-out: MIC.
Source text: as §1

[20] abbreviates: T111, 10^6 cells per ml, 20 hours, read-out: MIC.
Setting [21] is: T216, 10^6 cells per ml, 20 hours, read-out: MIC.
Where [22] appears, read: Pro. vulgaris GN3027, 10^6 cells per ml, 37° C., 20 hours, read-out: MIC.
The mark [23] stands for this setting: E. coli NIHJ JC-2, 10^6 cells per ml, 37° C., 20 hours, read-out: MIC.

Values after ≈ are worked out from the molar mass of the structure shown. Where two headings read alike, the source gives them in different places.

`COc1ccc(-c2ccc(-c3cc(=O)c(C(=O)O)cn3-c3ccc(O)cc3)cc2)s1`: the minimum inhibitory concentration (MIC) (in general, the lowest concentration that inhibits growth of the organism) was 3.13 µg/mL (≈ 7.46 µM) in experiment [1]; at most 0.05 µg/mL in experiment [2]; 1.56 µg/mL (≈ 3.72 µM) in experiment [3]; 0.39 µg/mL (≈ 0.93 µM) in experiment [4]; 0.78 µg/mL (≈ 1.86 µM) in experiment [5] (20 h, read-out: MIC); at most 0.05 µg/mL in [6]. For the same compound, the minimum inhibitory concentration (MIC) in [7] is 0.39 µg/mL (≈ 0.93 µM); in [8], 0.78 µg/mL (≈ 1.86 µM); in experiment [9] (setting [20]), 0.78 µg/mL (≈ 1.86 µM); in experiment [10], at most 0.05 µg/mL; in experiment [11], 0.1 µg/mL (≈ 0.238 µM); in [12] (setting [21]), 0.39 µg/mL (≈ 0.93 µM). Further, the minimal inhibitory concentration (MIC) in experiment [13] (setting [22]) came out at 0.2 µg/mL (≈ 0.477 µM); in experiment [14] it was 0.1 µg/mL (≈ 0.238 µM); in [15], 3.13 µg/mL (≈ 7.46 µM); in [16] (setting [23]), 0.39 µg/mL (≈ 0.93 µM); in experiment [17], 0.78 µg/mL (≈ 1.86 µM); in experiment [18] it was 6.25 µg/mL (≈ 14.9 µM). Further, the minimal inhibitory concentration (MIC) in [19] came out at 1.56 µg/mL (≈ 3.72 µM).
As for `Cc1ccc(-c2ccc(-c3cc(=O)c(C(=O)O)cn3-c3ccc(O)cc3)cc2)s1`, the MIC is 6.25 µg/mL (≈ 15.5 µM) in experiment [1]; at most 0.05 µg/mL in experiment [2]; 1.56 µg/mL (≈ 3.87 µM) in experiment [3]; 0.39 µg/mL (≈ 0.967 µM) in [4]; 1.56 µg/mL (≈ 3.87 µM) in experiment [5] (GN918, 20 h); at most 0.05 µg/mL in experiment [6]. The MIC in [7] is 0.39 µg/mL (≈ 0.967 µM); in experiment [8] it was 0.78 µg/mL (≈ 1.93 µM); in [9] (setting [20]) it was 0.39 µg/mL (≈ 0.967 µM); in experiment [10], at most 0.05 µg/mL; in experiment [11], 0.1 µg/mL (≈ 0.248 µM); in experiment [12] (setting [21]), 0.78 µg/mL (≈ 1.93 µM). Further, the minimum inhibitory concentration (MIC) is 0.1 µg/mL (≈ 0.248 µM) in experiment [13] (setting [22]); at most 0.05 µg/mL in [14]; 3.13 µg/mL (≈ 7.76 µM) in [15]; 0.2 µg/mL (≈ 0.496 µM) in experiment [16] (setting [23]); 0.78 µg/mL (≈ 1.93 µM) in experiment [17]; 6.25 µg/mL (≈ 15.5 µM) in experiment [18]. The minimum inhibitory concentration (MIC) in experiment [19] came out at 1.56 µg/mL (≈ 3.87 µM).
On to `Cn1ccc2cc(-c3cc(=O)c(C(=O)O)cn3-c3ccc(O)cc3)ccc21`, for which the minimal inhibitory concentration (MIC) in experiment [1] was 3.13 µg/mL (≈ 8.69 µM); in [2], at most 0.05 µg/mL; in [3] it was 0.78 µg/mL (≈ 2.16 µM); in experiment [4], 0.39 µg/mL (≈ 1.08 µM); in experiment [5] (20 h, read-out: MIC), 0.78 µg/mL (≈ 2.16 µM); in experiment [6], at most 0.05 µg/mL. In addition, the MIC was 0.39 µg/mL (≈ 1.08 µM) in experiment [7]; 0.39 µg/mL (≈ 1.08 µM) in [8]; 0.78 µg/mL (≈ 2.16 µM) in experiment [9] (setting [20]); at most 0.05 µg/mL in experiment [10]; at most 0.05 µg/mL in experiment [11]; 0.39 µg/mL (≈ 1.08 µM) in experiment [12] (setting [21]). The minimal inhibitory concentration (MIC) came out at 0.1 µg/mL (≈ 0.277 µM) in [13] (setting [22]); 0.1 µg/mL (≈ 0.277 µM) in experiment [14]; 3.13 µg/mL (≈ 8.69 µM) in experiment [15]; 0.1 µg/mL (≈ 0.277 µM) in experiment [16] (setting [23]); 0.2 µg/mL (≈ 0.555 µM) in [17]; 3.13 µg/mL (≈ 8.69 µM) in experiment [18]. Moreover, the MIC in experiment [19] turned out to be 0.78 µg/mL (≈ 2.16 µM).
As for `O=C(O)c1cn(-c2ccc(O)cc2F)c(-c2ccc(N3CCOCC3)cc2)cc1=O`, the MIC in [1] stood at 50 µg/mL (≈ 122 µM); in experiment [2], 0.78 µg/mL (≈ 1.9 µM); in experiment [3] it was 25 µg/mL (≈ 60.9 µM); in [4], 3.13 µg/mL (≈ 7.63 µM); in experiment [5] (GN918, 20 h) it was 12.5 µg/mL (≈ 30.5 µM); in experiment [6] it was 0.39 µg/mL (≈ 0.95 µM). Also, the MIC in experiment [7] worked out at 6.25 µg/mL (≈ 15.2 µM); in experiment [8], 6.25 µg/mL (≈ 15.2 µM); in experiment [9] (T111, 20 h, 10^6 cells per ml) it was 12.5 µg/mL (≈ 30.5 µM); in [10] it was 0.78 µg/mL (≈ 1.9 µM); in [11] it was 0.39 µg/mL (≈ 0.95 µM); in experiment [12] (T216, 20 h, 10^6 cells per ml), 12.5 µg/mL (≈ 30.5 µM). Further, the MIC worked out at 1.56 µg/mL (≈ 3.8 µM) in experiment [13]; 6.25 µg/mL (≈ 15.2 µM) in experiment [14]; 25 µg/mL (≈ 60.9 µM) in experiment [15]; 1.56 µg/mL (≈ 3.8 µM) in experiment [16]; 1.56 µg/mL (≈ 3.8 µM) in experiment [17]; 100 µg/mL (≈ 244 µM) in experiment [18]. The MIC in experiment [19] was determined as 12.5 µg/mL (≈ 30.5 µM).
